The values that follow come from the supplement of paper PMC3974653.

Structures are written as SMILES. Where a name gives a salt, the structure may show the parent alone.

For this test, the system named is MTT (mouse pheochromocytoma). The test is described as follows: IC50 of cell viability (ATP content). The following applies: (24 or 48 h). In outline:
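Each well of a white 1536-well plate received 5 µl of MTT mouse pheochromocytoma cells at 200,000 cells/ml in DMEM containing 5% FBS and 1% horse serum. After overnight culture at 37°C, 5% CO2, cells were exposed for 24 or 48 hrs to 23 nl of library compound in DMSO, pinned at 8 final concentrations from 0.5 nM to 46 µM. CellTiter-Glo luminescence was read after 15 minutes, and IC50 was obtained from a four-parameter logistic fit of signals normalised to positive-control and DMSO wells.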
On to `C[C@]12CC(=O)[C@H]3[C@@H](CC\C4=C\C(=O)\C=C/[C@]34C)[C@@H]1CC[C@]2(O)C(=O)CO` [Prednisone], for which the “IC50 of cell viability” value was > 46 µM. On to `CC(O)C1CCC2C3CCC4CC(O)CCC4(C)C3CCC12C` (stereo not drawn) [Pregnandiol], for which the “IC50 of cell viability” value was > 46 µM. For `CC(=O)[C@H]1CC[C@H]2C3CC=C4C[C@@H](O)CC[C@]4(C)C3CC[C@]12C` (stereo partly drawn) [Pregnenolona], the “IC50 of cell viability” value was > 46 µM. For the compound `C[C@@H](Cc1ccccc1)NCCC(c1ccccc1)c1ccccc1.C[C@H](O)C(=O)O` [Prenylamine lactate], the “IC50 of cell viability” value was > 46 µM. Then `CCCN[C@@H](C)C(=O)Nc1ccccc1C` [Prilocaine hydrochloride], with > 46 µM; and `COc1cc(N[C@@H](C)CCCN)c2ncccc2c1` [Primaquine diphosphate], with > 46 µM. `CCCN(CCC)[S+](=O)([O-])c1ccc(C(=O)O)cc1` [Probenecid]: the “IC50 of cell viability” value is > 46 µM.

In the case of `CC(C)(Sc1cc(C(C)(C)C)c(O)c(C(C)(C)C)c1)Sc1cc(C(C)(C)C)c(O)c(C(C)(C)C)c1` [Probucol], the “IC50 of cell viability” value was > 46 µM. For `CCN(CC)CCOC(=O)c1ccc(N)cc1` [Procaine hydrochloride], the “IC50 of cell viability” value is > 46 µM. `CNNCc1ccc(C(=O)NC(C)C)cc1` [Procarbazine hydrochloride]: the “IC50 of cell viability” value was > 46 µM. With `CN1CCN(CCCN2c3ccccc3Sc3ccc(Cl)cc32)CC1` [Prochlorperazine dimaleate], the “IC50 of cell viability” value was > 46 µM. On to `O[C@@](CCN1CCCC1)(c1ccccc1)C1CCCCC1` [Procyclidine hydrochloride], for which the “IC50 of cell viability” value was > 46 µM.

Take `CC(=O)C1CCC2C3CC\C4=C\C(=O)CCC4(C)C3CCC12C` (stereo not drawn) [Progestin]: the “IC50 of cell viability” value was > 46 µM. For `CCCN(CCC)C(=O)C(CCC(=O)OCCCN1CCN(CCOC(=O)Cc2c(C)n(C(=O)c3ccc(Cl)cc3)c3ccc(OC)cc23)CC1)NC(=O)c1ccccc1` (stereo not drawn) [Proglumetacin maleate], the “IC50 of cell viability” value is > 46 µM. `CCCN(CCC)C(=O)[C@@H](CCC(=O)O)NC(=O)c1ccccc1` [Proglumide]: the “IC50 of cell viability” value was > 46 µM. With `CN(C)CCCN1c2ccccc2Sc2ccccc21` [Promazine hydrochloride], the “IC50 of cell viability” value was > 46 µM. With `N=C(N)c1ccc(OCCCOc2ccc(C(=N)N)cc2)cc1` [Propamidine], the “IC50 of cell viability” value was > 46 µM. Consider `CCCOC(=O)Cc1ccc(OCC(=O)N(CC)CC)c(OC)c1` [Propanidid], for which the “IC50 of cell viability” value was > 46 µM. As to `CCCOc1ccc(C(=O)OCCN(CC)CC)cc1N` [Proparacaine hydrochloride], the “IC50 of cell viability” value was > 46 µM. Then `CCC(Oc1ccccc1)C(=O)NC1C(=O)N2C1SC(C)(C)C2C(=O)[O-]` (stereo not drawn) [Propicillin], with > 46 µM. Turning to `CCC(=O)[O-]` [Propionic acid], the “IC50 of cell viability” value is > 46 µM. With `CCCOc1cc(N)ccc1C(=O)OCCN(CC)CC` [Propoxycaine hydrochloride], the “IC50 of cell viability” value was > 46 µM. On to `CCCOC(=O)c1cc(O)c(O)c(O)c1` [Propyl gallate], for which the “IC50 of cell viability” value was > 46 µM. As to `CCCOC(=O)c1ccc(O)cc1` [Propyl-4-hydroxybenzoate], the “IC50 of cell viability” value was > 46 µM.

Regarding `CNC(C)CC1CCCCC1` (stereo not drawn) [Propylhexadrine], the “IC50 of cell viability” value is > 46 µM.

With `CCCOC(=O)c1ccc(O)cc1` [Propylparaben], the “IC50 of cell viability” value was > 46 µM. Consider `C[C@@H]1O[C@@H](O[C@H]\2CC[C@]\3(C)[C@@H]4CC[C@]5(C)[C@@H](CC[C@@]5(O)[C@H]4CCC3=C2)C/6=C/OC(=O)/C=C6)[C@H](O)[C@H](O)[C@@H]1O` [Proscillaridin A], for which the “IC50 of cell viability” value was > 46 µM. Regarding `C[N+]1(C)[C@@H]2C[C@H](OC(=O)[C@@H](CO)c3ccccc3)C[C@@H]1[C@H]1O[C@H]12` [Proscomide], the “IC50 of cell viability” value is > 46 µM. The figure for `CNCCCC1C2=C(C=CC=C2)\C=C/C3=C1C=CC=C3` [Protriptyline hydrochloride] is > 46 µM. For `CC[C@H](c1ccccc1)c1noc(CCN(CC)CC)n1` [Proxazole citrate], the “IC50 of cell viability” value was > 46 µM.

As for `C[C@H](O)Cn1cnc2c1c(=O)n(C)c(=O)n2C` [Proxyphylline], the “IC50 of cell viability” value was > 46 µM. As to `Cc1oc(=O)oc1CN1CCN(c2cc3c(cc2F)c(=O)c(C(=O)O)c2n3C(C)S2)CC1` (stereo not drawn) [Prulifloxacin], the “IC50 of cell viability” value is > 46 µM. On to `CN(C)CCc1c[nH]c2cccc(O)c12` [Psilocin], for which the “IC50 of cell viability” value is > 46 µM. The figure for `CN(C)CCc1c[nH]c2cccc(OP(=O)(O)O)c12` [Psilocybin] is > 46 µM. Turning to `CN1CCCN=C1/C=C\c1cccs1.O=C(O)[C@@H](O)[C@@H](O)C(=O)O` [Pyrantel tartrate], the “IC50 of cell viability” value is > 46 µM. For the compound `NC(=O)c1cnccn1` [Pyrazinamide], the “IC50 of cell viability” value is > 46 µM. For `Cc1ncc(CO)c(CN)c1O` [Pyridoxamine dichlorohydrate], the “IC50 of cell viability” value was > 46 µM. For the compound `Cc1ncc(CO)c(CO)c1O` [Pyridoxine], the “IC50 of cell viability” value is > 46 µM.

On to `CCOC(=O)C(CCc1ccccc1)NC(C)C(=O)N1Cc2ccccc2CC1C(=O)O.Cl` (stereo not drawn) [QUINAPRIL HYDROCHLORIDE], for which the “IC50 of cell viability” value was > 46 µM. On to `C=CC1CN2CCC1CC2[C@@H](O)c1ccnc2ccc(OC)cc12` (stereo partly drawn) [QUINIDINE GLUCONATE], for which the “IC50 of cell viability” value was > 46 µM.

Take `C=C[C@H]1CN2CCC1C[C@H]2[C@H](O)c1ccnc2ccc(OC)cc12` (stereo partly drawn) [QUININE ASCORBATE]: the “IC50 of cell viability” value was > 46 µM.

With `C=CC1C[N@]2CCC1CC2C(OC(=O)OCC)c1ccnc2ccc(OC)cc12` (stereo partly drawn) [QUININE ETHYL CARBONATE], the “IC50 of cell viability” value is > 46 µM. In the case of `c1ccc2nc(N3CCNCC3)ccc2c1` [QUIPAZINE], the “IC50 of cell viability” value is > 46 µM. `C[C@@H](C(=O)O)c1ccc(C2CCCCC2)c2ccccc12` [Quadrisol]: the “IC50 of cell viability” value was > 46 µM. In the case of `CCc1ncnc2cc(OC)c(OC)cc12` [Quazodine], the “IC50 of cell viability” value was > 46 µM.

As for `O.O.OC1=CC2=C(C(=C1)O)C(=O)\C(=C(/O2)C3=CC(=C(O)C=C3)O)O` [Quercetine dihydrate], the “IC50 of cell viability” value is > 46 µM.

On to `OC(c1ccccc1)(c1ccccc1)C1CN2CCC1CC2` (stereo not drawn) [Quifenadine], for which the “IC50 of cell viability” value was > 46 µM. Turning to `CCN(CC)CCC[C@H](C)Nc1c2ccc(Cl)cc2nc2ccc(OC)cc12.Cl.Cl.O.O` [Quinacrine dihydrochloride dihydrate], the “IC50 of cell viability” value was > 46 µM. Take `[O-][n+]1cc[n+]([O-])c2ccccc21` [Quindoxin]: the “IC50 of cell viability” value is > 46 µM. For `CC[C@H]1NC(=O)c2cc([S+](N)(=O)[O-])c(Cl)cc2N1` [Quinethazone], the “IC50 of cell viability” value was > 46 µM.

Regarding `C=C[C@H]1CN2CCC1C[C@H]2[C@H](O)c1ccnc2ccc(OC)cc12.C=C[C@H]1CN2CCC1C[C@H]2[C@H](O)c1ccnc2ccc(OC)cc12.O.O.O=[S+]([O-])(O)O` (stereo partly drawn) [Quinine hemisulfate salt monohydrate], the “IC50 of cell viability” value is > 46 µM. On to `CCCN1CCC[C@H](c2cccc(O)c2)C1.Cl` [R(+)-3PPP hydrochloride], for which the “IC50 of cell viability” value was > 46 µM. As for `CCN(CC)C(=O)N[C@@H]1C[C@@H]2c3cccc4[nH]cc(c34)C[C@H]2N(C)C1` [R(+)-TERGURIDE], the “IC50 of cell viability” value was > 46 µM. Then `COc1ccc(CCNC[C@@H](O)c2ccc(O)cc2)cc1OC` [R(-)-Denopamine], with > 46 µM; and `CC(C)NC[C@@H](O)COc1ccc(CC(N)=O)cc1` [R-(+)-ATENOLOL], with > 46 µM. In the case of `CC(C)NC[C@@H](O)COc1cccc2ccccc12` [R-(+)-PROPRANOLOL], the “IC50 of cell viability” value was > 46 µM. As for `C=CCC1(C(C)CCC)C(=O)NC(=O)NC1=O` (stereo not drawn) [R-(+)-Secobarbital], the “IC50 of cell viability” value was > 46 µM. Consider `COCCCOc1ccnc(C[S+]([O-])c2nc3ccccc3[n-]2)c1C` (stereo not drawn) [RABEPRAZOLE SODIUM], for which the “IC50 of cell viability” value was > 46 µM.

As to `CC(CCc1ccc(O)cc1)NCC(O)c1ccc(O)cc1` (stereo not drawn) [RACTOPAMINE HYDROCHLORIDE], the “IC50 of cell viability” value was > 46 µM.

`C=C1NC(=O)c2cc(CN(C)c3ccc(C(=O)N[C@@H](CCC(=O)O)C(=O)O)s3)ccc2N1` [RALTITREXED]: the “IC50 of cell viability” value is > 46 µM. As to `O=C(O)CCn1c2c(c3ccccc31)C[C@H](N[S+](=O)([O-])c1ccc(F)cc1)CC2` [RAMATROBAN], the “IC50 of cell viability” value was > 46 µM. As for `CCC(=O)NCCC1CCc2ccc3c(c21)CCO3` (stereo not drawn) [RAMELTEON], the “IC50 of cell viability” value is > 46 µM.

As to `Cl.CC(C)NC/1=C(C)/N(C)N(C1=O)C2=CC=CC=C2` [RAMIFENAZONE], the “IC50 of cell viability” value was > 46 µM. Consider `Cn1cc(C(=O)[C@@H]2CCc3[nH]cnc3C2)c2ccccc21` [RAMOSETRON HYDROCHLORIDE], for which the “IC50 of cell viability” value is > 46 µM. As to `CN/C(=C\[N+](=O)[O-])NCCSCc1ccc(CN(C)C)o1` [RANITIDINE], the “IC50 of cell viability” value is > 46 µM.

As for `COc1ccccc1OCC(O)CN1CCN(CC(=O)Nc2c(C)cccc2C)CC1` (stereo not drawn) [RANOLAZINE], the “IC50 of cell viability” value was > 46 µM. Turning to `C=CC[N+]1([C@H]2C[C@H]3[C@@H]4CC[C@H]5C[C@H](OC(C)=O)[C@@H](N6CCCCC6)C[C@]5(C)[C@H]4CC[C@]3(C)[C@H]2OC(=O)CC)CCCCC1` [RAPACURONIUM BROMIDE], the “IC50 of cell viability” value is > 46 µM. As for `C#CCN[C@@H]1CCc2ccccc21` [RASAGILINE MESYLATE], the “IC50 of cell viability” value is > 46 µM.
